Reference: ChEMBL document CHEMBL1201861, “Genomics of Drug Sensitity in Cancer screening data, Wellcome Trust Sanger Institute”

How the values were obtained:
Assay in all cases: cells
Conditions in all cases: Homo sapiens
[1] = tested on: NCI-H1650; format: functional, cell-based;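 note: growth inhibition of human NCI-H1650 cells measured by a cell viability assay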
Description: SANGER: Inhibition of human NCI-H1650 cell growth in a cell viability assay.

[2] = tested on: Mo; format: functional, cell-based
Description: SANGER: Inhibition of human Mo-T cell growth in a cell viability assay.

[3] = tested on: L-428; format: functional, cell-based
Description: SANGER: Inhibition of human L-428 cell growth in a cell viability assay.

[4] = tested on: NB6; format: functional, cell-based;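 note: growth inhibition of NB6 cells, read out by a cell viability assay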
Description: SANGER: Inhibition of human NB6 cell growth in a cell viability assay.

[5] = tested on: CP66-MEL; format: functional, cell-based;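 note: growth inhibition of CP66-MEL cells determined in a cell viability assay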
Description: SANGER: Inhibition of human CP66-MEL cell growth in a cell viability assay.

[6] = tested on: NCI-H510A; format: functional, cell-based;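 note: growth inhibition of NCI-H510A cells, read out with a cell viability assay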
Description: SANGER: Inhibition of human NCI-H510A cell growth in a cell viability assay.

[7] = tested on: NKM-1; format: functional, cell-based;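 note: growth inhibition of NKM-1 cells, read out with a cell viability assay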
Description: SANGER: Inhibition of human NKM-1 cell growth in a cell viability assay.

[8] = tested on: TGBC24TKB; format: functional, cell-based;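 note: growth inhibition of human TGBC24TKB cells, read out with a cell viability assay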
Description: SANGER: Inhibition of human TGBC24TKB cell growth in a cell viability assay.

[9] = tested on: HAL-01; format: functional, cell-based;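 note: growth inhibition of human HAL-01 cells, read out with a cell viability assay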
Description: SANGER: Inhibition of human HAL-01 cell growth in a cell viability assay.

[10] = tested on: EKVX; format: functional, cell-based;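 note: growth inhibition of human EKVX cells, read out with a cell viability assay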
Description: SANGER: Inhibition of human EKVX cell growth in a cell viability assay.

[11] = tested on: MHH-NB-11; format: functional, cell-based;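 note: growth inhibition of human MHH-NB-11 cells, read out by a cell viability assay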
Description: SANGER: Inhibition of human MHH-NB-11 cell growth in a cell viability assay.

[12] = tested on: COLO-829; format: functional, cell-based
Description: SANGER: Inhibition of human COLO-829 cell growth in a cell viability assay.

[13] = tested on: LS-411N; format: functional, cell-based
[14] = tested on: RH-1; format: functional, cell-based;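 note: growth inhibition of human RH-1 cells, read out with a cell viability assay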
Description: SANGER: Inhibition of human RH-1 cell growth in a cell viability assay.

[15] = tested on: EW-3; format: functional, cell-based;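 note: cell viability assay read-out, IC50 reflects inhibition of growth of the EW-3 cells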
Description: SANGER: Inhibition of human EW-3 cell growth in a cell viability assay.

[16] = tested on: GI-ME-N; format: functional, cell-based;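 note: growth inhibition of human GI-ME-N cells, read out with a cell viability assay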
Description: SANGER: Inhibition of human GI-ME-N cell growth in a cell viability assay.

[17] = tested on: OCUB-M; format: functional, cell-based;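 note: growth inhibition of the cancer cell line, read out through a cell viability assay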
Description: SANGER: Inhibition of human OCUB-M cell growth in a cell viability assay.

[18] = tested on: COLO-668; format: functional, cell-based
Description: SANGER: Inhibition of human COLO-668 cell growth in a cell viability assay.

[19] = tested on: LB831-BLC; format: functional, cell-based;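 note: growth inhibition of LB831-BLC cells, read out with a cell viability assay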
Description: SANGER: Inhibition of human LB831-BLC cell growth in a cell viability assay.

[20] = tested on: D-263MG; format: functional, cell-based
Description: SANGER: Inhibition of human D-263MG cell growth in a cell viability assay.

[21] = tested on: HuTu80; format: functional, cell-based, HUTU-80;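 note: growth inhibition of HuTu80 human cells, determined with a cell viability readout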
Description: SANGER: Inhibition of human HUTU-80 cell growth in a cell viability assay.

[22] = tested on: NCI-H1092; format: functional, cell-based;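 note: cell growth inhibition measured with a cell viability assay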
Description: SANGER: Inhibition of human NCI-H1092 cell growth in a cell viability assay.

[23] = tested on: SK-UT-1; format: functional, cell-based;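 note: growth inhibition of SK-UT-1 cells, measured by a cell viability assay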
Description: SANGER: Inhibition of human SK-UT-1 cell growth in a cell viability assay.

[24] = tested on: BB49-HNC; format: functional, cell-based;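 note: cell viability assay read-out, reported as inhibition of BB49-HNC cell growth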
Description: SANGER: Inhibition of human BB49-HNC cell growth in a cell viability assay.

[25] = tested on: MSTO-211H; format: functional, cell-based
Description: SANGER: Inhibition of human MSTO-211H cell growth in a cell viability assay.

[26] = tested on: LU-134-A; format: functional, cell-based
Description: SANGER: Inhibition of human LU-134-A cell growth in a cell viability assay.

[27] = tested on: OVCAR-4; format: functional, cell-based;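 note: growth inhibition of human OVCAR-4 cells, measured with a cell viability assay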
Description: SANGER: Inhibition of human OVCAR-4 cell growth in a cell viability assay.

[28] = tested on: LB1047-RCC; format: functional, cell-based;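 note: inhibition of cell growth, determined with a cell viability assay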
Description: SANGER: Inhibition of human LB1047-RCC cell growth in a cell viability assay.

[29] = tested on: A498; format: functional, cell-based;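 note: growth inhibition of human A498 cells, read out with a cell viability assay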
Description: SANGER: Inhibition of human A498 cell growth in a cell viability assay.

[30] = tested on: NCI-H1355; format: functional, cell-based;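 note: growth inhibition of human NCI-H1355 cells, read out by a cell viability assay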
Description: SANGER: Inhibition of human NCI-H1355 cell growth in a cell viability assay.

[31] = tested on: EW-11; format: functional, cell-based;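 note: growth inhibition of human EW-11 cells, measured with a cell viability assay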
Description: SANGER: Inhibition of human EW-11 cell growth in a cell viability assay.

[32] = tested on: SHP77; format: functional, cell-based, SHP-77;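 note: growth inhibition of human SHP-77 cells measured by a cell viability assay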
Description: SANGER: Inhibition of human SHP-77 cell growth in a cell viability assay.

[33] = tested on: HL-60; format: functional, cell-based;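 note: growth inhibition of human HL-60 cells, read out with a cell viability assay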
Description: SANGER: Inhibition of human HL-60 cell growth in a cell viability assay.

[34] = tested on: MPP-89; format: functional, cell-based;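 note: growth inhibition of human MPP-89 cells, read out with a cell viability assay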
Description: SANGER: Inhibition of human MPP-89 cell growth in a cell viability assay.

[35] = tested on: COLO-684; format: functional, cell-based
Description: SANGER: Inhibition of human COLO-684 cell growth in a cell viability assay.

[36] = tested on: COR-L88; format: functional, cell-based;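 note: growth inhibition of COR-L88 cells, read out with a cell viability assay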
Description: SANGER: Inhibition of human COR-L88 cell growth in a cell viability assay.

[37] = tested on: JAR; format: functional, cell-based;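 note: growth inhibition of human JAR cells determined with a cell viability assay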
Description: SANGER: Inhibition of human JAR cell growth in a cell viability assay.

[38] = tested on: NB10; format: functional, cell-based;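 note: growth inhibition of NB10 cells, read out by a cell viability assay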
Description: SANGER: Inhibition of human NB10 cell growth in a cell viability assay.

[39] = tested on: KE-37; format: functional, cell-based;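 note: growth inhibition of KE-37 cells, read out with a cell viability assay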
Description: SANGER: Inhibition of human KE-37 cell growth in a cell viability assay.

[40] = tested on: BT-474; format: functional, cell-based
Description: SANGER: Inhibition of human BT-474 cell growth in a cell viability assay.

[41] = tested on: LB373-MEL-D; format: functional, cell-based;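 note: growth inhibition of the cell line, read out in a cell viability assay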
Description: SANGER: Inhibition of human LB373-MEL-D cell growth in a cell viability assay.

[42] = tested on: BB30-HNC; format: functional, cell-based;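 note: growth inhibition of the cultured cell line, read out by a cell viability assay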
Description: SANGER: Inhibition of human BB30-HNC cell growth in a cell viability assay.

[43] = tested on: EW-18; format: functional, cell-based;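 note: growth inhibition of EW-18 cells, read out by a cell viability assay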
Description: SANGER: Inhibition of human EW-18 cell growth in a cell viability assay.

[44] = tested on: LXF-289 cell line; format: functional, cell-based
Description: SANGER: Inhibition of human LXF-289 cell growth in a cell viability assay.

[45] = tested on: LNCaP-Clone-FGC; format: functional, cell-based
Description: SANGER: Inhibition of human LNCaP-Clone-FGC cell growth in a cell viability assay.

[46] = tested on: CW-2; format: functional, cell-based;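 note: growth inhibition of CW-2 cells, read out by a cell viability assay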
Description: SANGER: Inhibition of human CW-2 cell growth in a cell viability assay.

[47] = tested on: LS-513; format: functional, cell-based
Description: SANGER: Inhibition of human LS-513 cell growth in a cell viability assay.

[48] = tested on: KY821; format: functional, cell-based;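 note: growth inhibition of human KY821 cells, read out by a cell viability assay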
Description: SANGER: Inhibition of human KY821 cell growth in a cell viability assay.

[49] = tested on: LB771-HNC; format: functional, cell-based;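 note: growth inhibition of LB771-HNC human cells, read out with a cell viability assay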
Description: SANGER: Inhibition of human LB771-HNC cell growth in a cell viability assay.

[50] = tested on: SW 962; format: functional, cell-based;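 note: growth inhibition of human SW962 cells, read out by a cell viability assay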
Description: SANGER: Inhibition of human SW962 cell growth in a cell viability assay.

[51] = tested on: TE-8; format: functional, cell-based;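 note: growth inhibition of TE-8 cells, measured with a cell viability readout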
Description: SANGER: Inhibition of human TE-8 cell growth in a cell viability assay.

[52] = tested on: DSH1; format: functional, cell-based;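 note: growth inhibition of human DSH1 cells, measured with a cell viability readout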
Description: SANGER: Inhibition of human DSH1 cell growth in a cell viability assay.

[53] = tested on: SW684; format: functional, cell-based;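 note: growth inhibition of human SW684 cells, measured by a cell viability assay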
Description: SANGER: Inhibition of human SW684 cell growth in a cell viability assay.

[54] = tested on: COLO-320-HSR; format: functional, cell-based;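 note: growth inhibition of COLO-320-HSR cells, determined with a cell viability assay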
Description: SANGER: Inhibition of human COLO-320-HSR cell growth in a cell viability assay.

[55] = tested on: Lu-65; format: functional, cell-based;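 note: growth inhibition of Lu-65 cancer cells, read out by a cell viability assay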
Description: SANGER: Inhibition of human LU-65 cell growth in a cell viability assay.

[56] = tested on: TE-1; format: functional, cell-based;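 note: growth inhibition of the human TE-1 cell line, read out with a cell viability assay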
Description: SANGER: Inhibition of human TE-1 cell growth in a cell viability assay.

[57] = tested on: KARPAS-299; format: functional, cell-based
Description: SANGER: Inhibition of human KARPAS-299 cell growth in a cell viability assay.

[58] = tested on: IST-MES1; format: functional, cell-based;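 note: growth inhibition of IST-MES1 cells, measured with a cell viability assay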
Description: SANGER: Inhibition of human IST-MES1 cell growth in a cell viability assay.

[59] = tested on: NCI-H526; format: functional, cell-based;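 note: growth inhibition of the human NCI-H526 cell line, measured by a cell viability assay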
Description: SANGER: Inhibition of human NCI-H526 cell growth in a cell viability assay.

[60] = tested on: BV-173; format: functional, cell-based
Description: SANGER: Inhibition of human BV-173 cell growth in a cell viability assay.

[61] = tested on: COLO-800; format: functional, cell-based;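 note: growth inhibition of COLO-800 cells, read out with a cell viability assay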
Description: SANGER: Inhibition of human COLO-800 cell growth in a cell viability assay.

[62] = tested on: D283 Med; format: functional, cell-based
Description: SANGER: Inhibition of human D-283MED cell growth in a cell viability assay.

[63] = tested on: ALL-PO; format: functional, cell-based;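 note: growth inhibition of ALL-PO cells, read out by a cell viability assay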
Description: SANGER: Inhibition of human ALL-PO cell growth in a cell viability assay.

[64] = tested on: NH-12; format: functional, cell-based;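 note: growth inhibition of NH-12 cells, read out with a cell viability assay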
Description: SANGER: Inhibition of human NH-12 cell growth in a cell viability assay.

[65] = tested on: C2BBe1; format: functional, cell-based;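 note: growth inhibition of C2BBe1 cells, read out through a viability assay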
Description: SANGER: Inhibition of human C2BBe1 cell growth in a cell viability assay.

SMILES: C/C=C(/C)C(=O)O[C@H]1C(C)=C2[C@H]([C@@H]1OC(=O)CCCCCCC)[C@@](C)(OC(C)=O)C[C@H](OC(=O)CCC)[C@@]1(O)[C@H]2OC(=O)[C@@]1(C)O [THAPSIGARGIN]
- IC50 [1]: 147 nM
- IC50 [2]: > 512 nM
- IC50 [3]: > 512 nM
- IC50 [4]: 4.58 nM
- IC50 [5]: 3.6 nM
- IC50 [6]: 36.1 nM
- IC50 [7]: 6.12 nM
- IC50 [8]: < 2 nM
- IC50 [9]: 301 nM
- IC50 [10]: 250 nM
- IC50 [11]: 45.1 nM
- IC50 [12]: 29.8 nM
- IC50 [13]: 13.6 nM
- IC50 [14]: 43.4 nM
- IC50 [15]: 118 nM
- IC50 [16]: 18.2 nM
- IC50 [17]: 0.597 nM
- IC50 [18]: 19.7 nM
- IC50 [19]: 3.94 nM
- IC50 [20]: 37.2 nM
- IC50 [21]: 0.657 nM
- IC50 [22]: > 512 nM
- IC50 [23]: 23.3 nM
- IC50 [24]: > 512 nM
- IC50 [25]: 293 nM
- IC50 [26]: 93.3 nM
- IC50 [27]: 2.93 nM
- IC50 [28]: 7.05 nM
- IC50 [29]: > 512 nM
- IC50 [30]: 5.48 nM
- IC50 [31]: 54.8 nM
- IC50 [32]: 59.1 nM
- IC50 [33]: > 512 nM
- IC50 [34]: 20 nM
- IC50 [35]: 345 nM
- IC50 [36]: 266 nM
- IC50 [37]: > 512 nM
- IC50 [38]: 63.2 nM
- IC50 [39]: 7.53 nM
- IC50 [40]: 210 nM
- IC50 [41]: 29.1 nM
- IC50 [42]: 0.984 nM
- IC50 [43]: 2.11 nM
- IC50 [44]: < 2 nM
- IC50 [45]: 32.2 nM
- IC50 [46]: > 512 nM
- IC50 [47]: 154 nM
- IC50 [48]: 0.636 nM
- IC50 [49]: 64.1 nM
- IC50 [50]: 6.85 nM
- IC50 [51]: 1.37 nM
- IC50 [52]: 13.9 nM
- IC50 [53]: > 512 nM
- IC50 [54]: 48 nM
- IC50 [55]: 8.49 nM
- IC50 [56]: 22 nM
- IC50 [57]: 35.6 nM
- IC50 [58]: 138 nM
- IC50 [59]: 34 nM
- IC50 [60]: 2.81 nM
- IC50 [61]: 51.3 nM
- IC50 [62]: < 2 nM
- IC50 [63]: 16.3 nM
- IC50 [64]: 24 nM
- IC50 [65]: 29.3 nM

SMILES: C[C@]1(c2nc3c(C(N)=O)cccc3[nH]2)CCCN1 [VELIPARIB]
- IC50 [1]: > 5000 nM
- IC50 [2]: > 5000 nM
- IC50 [3]: > 5000 nM
- IC50 [4]: > 5000 nM
- IC50 [5]: > 5000 nM
- IC50 [6]: > 5000 nM
- IC50 [7]: > 5000 nM
- IC50 [8]: > 5000 nM
- IC50 [9]: > 5000 nM
- IC50 [10]: > 5000 nM
- IC50 [11]: > 5000 nM
- IC50 [12]: > 5000 nM
- IC50 [13]: > 5000 nM
- IC50 [14]: > 5000 nM
- IC50 [15]: > 5000 nM
- IC50 [16]: > 5000 nM
- IC50 [17]: > 5000 nM
- IC50 [18]: > 5000 nM
- IC50 [19]: > 5000 nM
- IC50 [20]: > 5000 nM
- IC50 [21]: > 5000 nM
- IC50 [22]: > 5000 nM
- IC50 [23]: > 5000 nM
- IC50 [24]: > 5000 nM
- IC50 [25]: > 5000 nM
- IC50 [26]: > 5000 nM
- IC50 [27]: > 5000 nM
- IC50 [28]: > 5000 nM
- IC50 [29]: > 5000 nM
- IC50 [30]: > 5000 nM
- IC50 [31]: > 5000 nM
- IC50 [32]: > 5000 nM
- IC50 [33]: > 5000 nM
- IC50 [34]: > 5000 nM
- IC50 [35]: > 5000 nM
- IC50 [36]: > 5000 nM
- IC50 [37]: > 5000 nM
- IC50 [38]: > 5000 nM
- IC50 [39]: > 5000 nM
- IC50 [40]: > 5000 nM
- IC50 [41]: > 5000 nM
- IC50 [42]: > 5000 nM
- IC50 [43]: > 5000 nM
- IC50 [44]: > 5000 nM
- IC50 [45]: > 5000 nM
- IC50 [46]: > 5000 nM
- IC50 [47]: > 5000 nM
- IC50 [48]: > 5000 nM
- IC50 [49]: > 5000 nM
- IC50 [50]: > 5000 nM
- IC50 [51]: > 5000 nM
- IC50 [52]: > 5000 nM
- IC50 [53]: > 5000 nM
- IC50 [54]: > 5000 nM
- IC50 [55]: > 5000 nM
- IC50 [56]: > 5000 nM
- IC50 [57]: > 5000 nM
- IC50 [58]: > 5000 nM
- IC50 [59]: > 5000 nM
- IC50 [60]: > 5000 nM
- IC50 [61]: > 5000 nM
- IC50 [62]: > 5000 nM
- IC50 [63]: > 5000 nM
- IC50 [64]: > 5000 nM
- IC50 [65]: > 5000 nM
